Data on 75 compounds can be found in PubChem BioAssay AID720587 (Broad Institute, 2013).

Activity calls are given as the source filed them.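 How the source made its calls: active means fitted curve reaches -35% activity change at a concentration below twice the top valid dose tested; inactive means the rest, including effects opposite to the expected direction.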

One experiment can be described thus: EWS/Fli1-dependent A673 cell killing, confirmation, CellTiter-Glo luminescence, cherry-pick retest (AID 720587). As to conditions: A673 Ewing sarcoma viability, CellTiter-Glo ATP luminescence, 72 h; at 23.5 µM (top of the series).
As for `N#C[C@H]1[C@H](c2ccc(C#Cc3ccccc3F)cc2)[C@@H](CO)N1C(=O)C1CCCCC1`, the activity change, negative = cytotoxicity was -7.62% (inactive).
On the same count and under the same terms, the figure for `COC(=O)C[C@@H]1CC[C@@H]2[C@H](COc3ccc(NC(=O)c4cccc(Cl)c4)cc3C(=O)N2C)O1` is -7.39% (inactive); for `COC(=O)C[C@@H]1CC[C@@H]2[C@H](COc3ccc(NC(=O)c4cccc(F)c4)cc3C(=O)N2C)O1` it is -1.57% (inactive); for `N#C[C@H]1N[C@H](CO)[C@H]1c1ccc(C#Cc2ccccc2F)cc1` it is 3.42% (inactive).

The same experiment, now with this note: A673 Ewing sarcoma viability, CellTiter-Glo ATP luminescence, 72 h; at 26 µM (top of the series).
For `CCn1c(C)cc(C(=O)CN2C(=O)c3ccccc3S2(=O)=O)c1C`, the activity change, negative = cytotoxicity is 9.42% (inactive).
As to `O=C(NC(=O)c1ccccc1)Nc1ccccc1`, the activity change, negative = cytotoxicity was -3.17% (inactive).
On to `CC(C)CC(NC(=O)c1cccs1)c1nnc(SCc2ccc(Cl)c(Cl)c2)n1C` (stereo not given), for which the activity change, negative = cytotoxicity is 6.55% (inactive).
Same read-out and setting: the figure for `C(=C\c1ccc(C2[C@H]3CNC[C@@H]2N3Cc2ccccn2)cc1)/c1ccccc1` (stereo not given in full) is -3.03% (inactive).
Same read-out and setting: then `Cc1cc(C(=O)NNC(=O)c2ccc(S(=O)(=O)N(C)C)cc2)c(C)o1`, with 1% (inactive).
The same measure, in the same setting: then `CCCc1cc(=O)oc2c3c(c4c(c12)OC(C)(C)C=C4)OC(C)C(C)C3O` (stereo not given), with -3.35% (inactive); and `COc1cc(/C=N/NS(=O)(=O)c2ccc(C)cc2)ccc1OCc1cccc(C(=O)O)c1`, with -3.14% (inactive).
Take `CCOc1ccc(-c2cc(CCCC(=O)N3CCN(c4ccc(OC)cc4)CC3)no2)cc1`: the activity change, negative = cytotoxicity is 9.05% (inactive).
Same read-out and setting: the figure for `O=C1Nc2ccccc2C1=Nc1ccc(Br)cc1` is -3.12% (inactive); for `COCCCNc1ccn2nc(-c3ccccc3)cc2n1` it is 0.68% (inactive); for `C=CCn1c(O)c(N=Nc2ccccc2)c2ccccc21` it is 7.11% (inactive).
As for `CCOC(=O)Cc1csc(NC(=S)NC(=O)c2ccc(C)cc2)n1`, the activity change, negative = cytotoxicity was -1.19% (inactive).
On the same count and under the same terms, then `C=CCOC(=O)c1sc(NC(=O)c2ccc(OC)cc2)nc1C`, with -13% (inactive).
On the same count and under the same terms, the figure for `Cc1ccsc1C(=O)OCC(=O)NCCC1=CCCCC1` is 2.01% (inactive); for `Cc1noc(C)c1NC(=O)Nc1ccc2c(c1)CC(=O)N([C@H](C)CO)C[C@@H](C)[C@@H](CN(C)Cc1ccc(Cl)c(Cl)c1)O2` it is 7.25% (inactive); for `Cc1ccsc1C(=O)OCC(=O)c1cc(C)n(C)c1C` it is -0.814% (inactive).
Take `COc1cc(/C=N/NS(=O)(=O)c2ccc3ccccc3c2)ccc1OCc1ccc(C(=O)O)cc1`: the activity change, negative = cytotoxicity is 0.172% (inactive).
For the compound `CC(=O)Nc1ccc(OCC(=O)N(CC(C)C)C2CCS(=O)(=O)C2)cc1` (stereo not given), the activity change, negative = cytotoxicity is 8.05% (inactive).
On the same count and under the same terms, then `COc1ccc(/C=C2\SC(=S)N(CCCC(=O)NC3CCCC3)C2=O)cc1OC`, with -18.4% (inactive).
Same read-out and setting: then `COc1ccc(/C=C2\SC(=O)N(CCCC(=O)Nc3ccc(C(=O)O)cc3)C2=O)cc1`, with -0.477% (inactive); and `Cc1ccc(Cl)cc1NC(=O)Cn1cc(C(F)(F)F)cc(Cl)c1=O`, with 10.1% (inactive).
On the same count and under the same terms, then `O=C(O)c1ccc(N/N=C/c2c[nH]c3ccccc23)cc1`, with -1.6% (inactive).
For `COc1ccc(/C=N/Nc2ccc(C(=O)O)cc2)cc1Br`, the activity change, negative = cytotoxicity is -2.31% (inactive).
Same read-out and setting: the figure for `Cc1ccc(S(=O)(=O)N(C)C[C@H]2Oc3c(cccc3N(C)C)C(=O)N([C@@H](C)CO)C[C@@H]2C)cc1` is -1.85% (inactive).
As for `COC(=O)c1cccc(NC(=O)NC(=O)c2ccc(Cl)cc2)c1`, the activity change, negative = cytotoxicity was -6.08% (inactive).
For the compound `Cc1ccc(Cc2c(-c3ccco3)nc3c(C)cc(Br)cn23)cc1`, the activity change, negative = cytotoxicity is 2.77% (inactive).
On the same count and under the same terms, the figure for `Cc1ccc(NC(=O)CCN2CCCCC2)cc1` is 12.4% (inactive); for `C(=N\Nc1ccc2ccccc2n1)/c1ccc2c(c1)OCCO2` it is -22.2% (inactive).
Turning to `O=C(NCc1ccccn1)c1ccc(CNS(=O)(=O)c2cccc(Cl)c2)cc1`, the activity change, negative = cytotoxicity was 0.155% (inactive).
Same read-out and setting: then `CCOc1ccccc1CNC(=O)c1ccc(Sc2ccc(Cl)cc2)c(NC(C)=O)c1`, with -0.342% (inactive); and `O=C(NCCc1ccccc1)c1ccccc1NC(=O)C1CCCO1` (stereo not given), with 0.338% (inactive).
Still for that read-out and setting: the figure for `Cc1ccc(NC(=O)COC(=O)c2ccc3c(c2)OCO3)cc1S(=O)(=O)N1CCCCC1` is -4.65% (inactive); for `CCNC(=O)c1cccc(S(=O)(=O)N2CCCCCC2)c1` it is 0.705% (inactive).
`Cc1c(Cl)cnc(NC(=O)COC(=O)c2ccc3ncsc3c2)c1Cl`: the activity change, negative = cytotoxicity was 12.1% (inactive).
As to `COc1ccc(C=NNc2nc3ccccc3s2)cc1`, the activity change, negative = cytotoxicity is 3.07% (inactive).
Still for that read-out and setting: then `CC(=O)c1ccc(NC(=O)c2noc3c2CCC3)cc1`, with -3.66% (inactive); and `O=C1C(=O)N(Cc2cccs2)c2ccccc21`, with -4.57% (inactive).
On to `O=C1C(=O)N(CCS(=O)(=O)c2ccccc2)c2ccc(Cl)cc21`, for which the activity change, negative = cytotoxicity is -5.89% (inactive).
On the same count and under the same terms, then `O=C(O)c1cccc(N/N=C/c2cccs2)c1`, with -8.12% (inactive); and `CCCN(C)C[C@H]1Oc2ncc(-c3ccccc3)cc2C(=O)N([C@@H](C)CO)C[C@H]1C`, with -4.17% (inactive); and `Cc1cc(-c2nc3ccccc3s2)ccc1N`, with -21.8% (inactive).
As to `CC(Oc1cccc(Cl)c1)C(=O)NCCCCc1ccccc1` (stereo not given), the activity change, negative = cytotoxicity is 3.26% (inactive).
Same read-out and setting: then `COc1ccc2cc(C(N)=O)/c(=N\NC(=O)c3ccccc3)oc2c1`, with -2% (inactive); and `COc1ccc(N=C(NN)c2ccc3ccccc3n2)cc1`, with -15.8% (inactive); and `CC(=O)Nc1cc(C(=O)NCc2ccco2)ccc1Sc1ccc(F)cc1`, with 8.55% (inactive).
Turning to `COc1ccc(/C=C2\SC(=O)N(CCCC(=O)Nc3cc(Cl)ccc3C(=O)O)C2=O)cc1`, the activity change, negative = cytotoxicity is 1.72% (inactive).
Same read-out and setting: then `O=C(CCCN1C(=O)/C(=C/c2ccccc2Cl)SC1=S)NNC(=O)c1ccc(Cl)cc1Cl`, with -0.616% (inactive).
Still for that read-out and setting: then `c1ccc(-c2ccc([C@H]3[C@H]4CNC[C@@H]3N4Cc3cc(-c4ccccc4)on3)cc2)cc1`, with -11.9% (inactive); and `COc1ccccc1NS(=O)(=O)c1cc(NC(=O)c2cc3ccccc3oc2=O)ccc1C`, with 13% (inactive).
On to `COc1ccc(/C=C2\SC(=S)N(CCCC(=O)Nc3ccc(O)cc3)C2=O)cc1`, for which the activity change, negative = cytotoxicity is -14.2% (inactive).
As for `O=C(CNC(=O)Cc1ccccc1)N=Nc1c(O)n(Cc2ccc3c(c2)OCO3)c2ccccc12`, the activity change, negative = cytotoxicity was -1.52% (inactive).
Same read-out and setting: then `CCN1CCN(/C=N/c2nc3c(s2)CCCC3)CC1`, with -1.1% (inactive); and `O=C(O)c1ccc2cc(-c3ccccc3)[nH]c2c1`, with -2.41% (inactive); and `CCc1ccc(/C=C2\SC(=S)N(CCC(=O)Nc3cc(C)on3)C2=O)cc1`, with 6.27% (inactive).
The same measure, in the same setting: the figure for `O=C(Nc1ccc(NC(=O)c2cc3ccccc3o2)cc1)c1ccc2c(c1)OCCO2` is 7.76% (inactive); for `O=C(Cc1nn[nH]n1)c1ccccc1O` it is 0.33% (inactive).
Turning to `C[C@@H]1CN([C@H](C)CO)C(=O)c2cc(NS(=O)(=O)c3ccc(Cl)cc3)ccc2O[C@@H]1CN(C)Cc1ccc(Cl)c(Cl)c1`, the activity change, negative = cytotoxicity is -17.2% (inactive).
For `O=C1Nc2ccccc2C1=Nc1ccccc1-c1ccccc1`, the activity change, negative = cytotoxicity was -7.56% (inactive).
Same read-out and setting: then `Cc1ccc2oc(/N=C(\N)NC(=O)C(C)(C)C)nc2c1`, with -3.45% (inactive).
Still for that read-out and setting: the figure for `Cc1c(-c2nc(-c3ccc(C(C)(C)C)cc3)no2)n(C)oc1=O` is 2.17% (inactive).
Still for that read-out and setting: then `Cc1cc(C)cc(OCC(=O)OCC(=O)Nc2cc(S(=O)(=O)N3CCOCC3)ccc2C)c1`, with -2.43% (inactive); and `CC(NC(=O)c1ccco1)c1nc(-c2ccc(C(C)(C)C)cc2)no1` (stereo not given), with -2.68% (inactive).
Regarding `C[C@@H]1CN([C@H](C)CO)C(=O)c2cc(C#CCc3ccccc3)cnc2O[C@@H]1CN(C)Cc1cccc(F)c1`, the activity change, negative = cytotoxicity is -13.4% (inactive).
Turning to `Cc1ccc(/C=N/Nc2ccc3ccccc3n2)o1`, the activity change, negative = cytotoxicity was -3.75% (inactive).
For the compound `CN(C)c1ccc(N=Nc2ccccc2Br)cc1`, the activity change, negative = cytotoxicity was -10.3% (inactive).
As for `CC(=O)c1ccc(N=C2C(=O)Nc3ccccc32)cc1`, the activity change, negative = cytotoxicity is -4.29% (inactive).
On the same count and under the same terms, the figure for `COc1ccc(Nc2ncnc3ccc(Br)cc23)c(OC)c1` is -5.17% (inactive).
Same read-out and setting: then `O=C1CCC2S/C(=C/Nc3ccc(C(F)(F)F)cc3)C(=O)N12` (stereo not given), with -2.74% (inactive); and `Cc1ccc(/C=C2\SC(=S)N(CCC(=O)NNC(=O)c3ccccc3O)C2=O)cc1`, with 6.17% (inactive).
In the case of `C[C@@H]1CN([C@H](C)CO)C(=O)c2cc(NC(=O)CCCCCC(=O)Nc3ccccc3N)ccc2O[C@H]1CN(C)S(=O)(=O)c1ccc(Cl)cc1`, the activity change, negative = cytotoxicity is -2.24% (inactive).
`C(=N\Nc1ccc2ccccc2n1)/c1ccc2c(c1)OCO2`: the activity change, negative = cytotoxicity was -5.01% (inactive).
